System: PBMC from HLA-A*02:01 Chagas disease patients and healthy donors
Experiment: Cytokine secretion test (Bio-Plex multiplex immunoassay) in PBMC supernatants
Assay type: cell-based, human
Details: 1 μM peptide, 30 h; for IFNγ / IL6 / TNFα: non-peptide control subtracted
Method: For the screening of the recognition of TcCA-2 epitopes by Chagas disease patients, 10 HLA-A*02:01 adult patients in the asymptomatic phase of the disease (IND) were enrolled. For cytotoxicity, functional activity determinations and phenotypic characterization another group of 19 HLA-A*02:01 adults Chagas disease patients and 9 healthy donors were analyzed. These patients were at the chronic stage of the disease and were considered to be at the asymptomatic phase (IND, n = 8) if there was no evidence of having cardiac or gastrointestinal disorders. Chronic Chagas cardiomyopathy patients (CCC, n = 11) were stratified into G1 to G3 stages following Kuschnir classification according to clinical criteria and radiological, electrocardiographic and echocardiography analyses. The number of patients was the one recommended by the Hospital Ethical Committee. […] The patients were enrolled in both studies (functional and phenotypic characterization, IND n = 6 and CCC n = 7) when the available number of purified PBMC (limited by the cellular number isolated from each subject) was enough for both analyses. Another four CCC patients had to be enrolled to perform the phenotypic analysis in order to reach statistical significance.
Cytokine secretion (IL-4, IL-10, IL-6, IFN-γ, TNF-α) was determined in the supernatants of PBMC from Chagas disease patients and healthy donors, after in vitro stimulation with 1 μM of each peptide for 30 h at 37°C in RPMI supplemented with 10% iFBS as explained before. The secretion profile was determined by using a bead-based multiplex immunoassay system (Bio-Plex, Bio-Rad), following the manufacturer's instructions. The response was considered positive if an increase in the secretion of cytokines was at least three folds higher than the secretion by un-stimulated cells (basal secretion level) and at least, 4 pg/mL for IL-4, 2 pg/mL for IL-10, 15 pg/mL for IL-6 and 5 pg/mL for IFN-γ and TNF-α. The positive control consisted of 50 ng/mL Phorbol 12 myristate 13-acetate (PMA) and 500 ng/mL ionomycin (Sigma). Cytokine levels were quantified in each sample by using the Bio-Plex Manager software 4.1 (Bio-Rad).
Functional analysis of the epitope-specific CD8^+ T cells was carried out by the determination of the secretion profile of IFN-γ, TNF-α, IL-4, IL10 and IL-6 cytokines. […] CD8^+ T cells from 2 out of 11 patients responded to stimulation with peptide TcCA-2_273-281 by secreting IL-6. […] There was no secretion of IL-4 and IL-10 in PBMC after stimulation with any one of the four TcCA-2 peptides (data not shown). IFN-γ, TNF-α and IL6 cytokines secretion levels were higher in patients at the asymptomatic phase of the disease than in Chagas patients with associated cardiomyopathy.

## ALRNLRVFL [TcCA-2_607-615]
PBMC of Chagas patients, positive = at least three folds non-peptide control and ≥15 pg/mL IL-6, ≥5 pg/mL IFN-γ and TNF-α
  Patients whose cells recognized the peptide by secreting IFN-γ, TNF-α and IL-6: 2 out of the 14
PBMC of patient CCC I 456
  IFNγ: 3 pg/mL
  IL6: 18 pg/mL
  TNFα: 12 pg/mL
PBMC of patient CCC I 770
  IFNγ: 0 pg/mL
  IL6: 49 pg/mL
  TNFα: 16 pg/mL
PBMC of patient CCC I 861
  IFNγ: 0 pg/mL
  IL6: -7 pg/mL
  TNFα: -3 pg/mL
PBMC of patient CCC I 884
  IFNγ: 0 pg/mL
  IL6: 0 pg/mL
  TNFα: 0 pg/mL
PBMC of patient CCC II 142
  IFNγ: 0 pg/mL
  IL6: -4 pg/mL
  TNFα: -15 pg/mL
PBMC of patient CCC III 509
  IFNγ: 0 pg/mL
  IL6: -5 pg/mL
  TNFα: -4 pg/mL
PBMC of patient CCC III 797
  IFNγ: -5 pg/mL
  IL6: 9 pg/mL
  TNFα: 3 pg/mL
PBMC of patient IND 265
  IFNγ: 81 pg/mL
  IL6: 1127 pg/mL
  TNFα: 83 pg/mL
PBMC of patient IND 283
  IFNγ: 15 pg/mL
  IL6: 55 pg/mL
  TNFα: 26 pg/mL
PBMC of patient IND 365
  IFNγ: 5 pg/mL
  IL6: 23 pg/mL
  TNFα: 23 pg/mL
PBMC of patient IND 388
  IFNγ: 1 pg/mL
  IL6: 32 pg/mL
  TNFα: -11 pg/mL
PBMC of patient IND 510
  IFNγ: 0 pg/mL
  IL6: -1 pg/mL
  TNFα: 2 pg/mL
PBMC of patient IND 535
  IFNγ: 0 pg/mL
  IL6: -5 pg/mL
  TNFα: -1 pg/mL
PBMC of patient IND 917
  IFNγ: 1 pg/mL
  IL6: -2 pg/mL
  TNFα: -3 pg/mL
PBMC of subject HD 001
  IFNγ: 1 pg/mL
  IL6: -6 pg/mL
  TNFα: -14 pg/mL
PBMC of subject HD 004
  IFNγ: 0 pg/mL
  IL6: -5 pg/mL
  TNFα: 0 pg/mL
PBMC of subject HD 005
  IFNγ: -21 pg/mL
  IL6: -77 pg/mL
  TNFα: -2 pg/mL
PBMC of subject HD 006
  IFNγ: 13 pg/mL
  IL6: 69 pg/mL
  TNFα: 5 pg/mL
PBMC of subject HD 008
  IFNγ: 3 pg/mL
  IL6: 22 pg/mL
  TNFα: 0 pg/mL
PBMC of subject HD 011
  IFNγ: 0 pg/mL
  IL6: -12 pg/mL
  TNFα: -8 pg/mL
PBMC of subject HD 340
  IFNγ: 0 pg/mL
  IL6: 6 pg/mL
  TNFα: 0 pg/mL
PBMC of subject HD 664
  IFNγ: -3 pg/mL
  IL6: 0 pg/mL
  TNFα: 0 pg/mL

## AAAGDKLSL [TcCA-2_273-281]
PBMC of Chagas patients, same positivity criteria
  Patients whose cells responded by secreting IL-6: 2 out of 11
PBMC of patient CCC I 456
  IFNγ: 0 pg/mL
  IL6: 0 pg/mL
  TNFα: 0 pg/mL
PBMC of patient CCC I 770
  IFNγ: 0 pg/mL
  IL6: 22 pg/mL
  TNFα: 4 pg/mL
PBMC of patient CCC I 861
  IFNγ: 2 pg/mL
  IL6: -4 pg/mL
  TNFα: -2 pg/mL
PBMC of patient CCC I 884
  IFNγ: 0 pg/mL
  IL6: 0 pg/mL
  TNFα: 0 pg/mL
PBMC of patient CCC III 509
  IFNγ: 0 pg/mL
  IL6: -4 pg/mL
  TNFα: -5 pg/mL
PBMC of patient IND 365
  IFNγ: 1 pg/mL
  IL6: 43 pg/mL
  TNFα: -6 pg/mL
PBMC of patient IND 388
  IFNγ: 2 pg/mL
  IL6: 36 pg/mL
  TNFα: 7 pg/mL
PBMC of patient IND 510
  IFNγ: 0 pg/mL
  IL6: 1 pg/mL
  TNFα: -1 pg/mL
PBMC of patient IND 535
  IFNγ: 0 pg/mL
  IL6: -5 pg/mL
  TNFα: -1 pg/mL
PBMC of patient IND 571
  IFNγ: 0 pg/mL
  IL6: 0 pg/mL
  TNFα: 0 pg/mL
PBMC of patient IND 917
  IFNγ: 7 pg/mL
  IL6: 18 pg/mL
  TNFα: 11 pg/mL
PBMC of subject HD 001
  IFNγ: 6 pg/mL
  IL6: 1 pg/mL
  TNFα: -8 pg/mL
PBMC of subject HD 004
  IFNγ: 0 pg/mL
  IL6: -9 pg/mL
  TNFα: 0 pg/mL
PBMC of subject HD 005
  IFNγ: -19 pg/mL
  IL6: -183 pg/mL
  TNFα: -11 pg/mL
PBMC of subject HD 006
  IFNγ: 6 pg/mL
  IL6: 1 pg/mL
  TNFα: 2 pg/mL
PBMC of subject HD 008
  IFNγ: -1 pg/mL
  IL6: 9 pg/mL
  TNFα: 0 pg/mL
PBMC of subject HD 011
  IFNγ: 0 pg/mL
  IL6: -11 pg/mL
  TNFα: -8 pg/mL
PBMC of subject HD 340
  IFNγ: 0 pg/mL
  IL6: 9 pg/mL
  TNFα: 4 pg/mL
PBMC of subject HD 664
  IFNγ: -3 pg/mL
  IL6: 0 pg/mL
  TNFα: 0 pg/mL
